Legend:
D3R [1] = molecular target: T1, D3R (Homo sapiens, UniProt P35462); assay: Radioligand binding at D3R; conditions: for D3R selectivities versus the other dopamine receptors tested: versus D1R, D2R, D4R, D5R
D3R [2] = molecular target: T1, D3R; conditions: flexible n-butyl linker compound from previous study; ref [19]; cited from earlier work

T1 sequence (P35462 whole entry): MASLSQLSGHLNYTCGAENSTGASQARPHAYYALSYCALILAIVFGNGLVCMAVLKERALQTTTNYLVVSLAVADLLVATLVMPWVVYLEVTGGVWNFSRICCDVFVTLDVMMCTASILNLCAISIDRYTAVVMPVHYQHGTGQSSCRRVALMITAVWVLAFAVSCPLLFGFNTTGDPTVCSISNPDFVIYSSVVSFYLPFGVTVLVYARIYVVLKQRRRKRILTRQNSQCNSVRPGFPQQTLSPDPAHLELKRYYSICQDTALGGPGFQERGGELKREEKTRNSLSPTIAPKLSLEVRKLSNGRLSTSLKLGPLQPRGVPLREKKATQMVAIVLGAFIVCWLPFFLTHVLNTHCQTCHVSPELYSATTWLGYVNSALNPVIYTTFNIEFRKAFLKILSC

## COc1cc2c(cc1OC)CN(Cc1ccccc1CNC(=O)c1cccc(C#N)c1)CC2 [5s]
D3R [1]
  D3R selectivities versus the other dopamine receptors tested: 15- to 420 fold

## COc1cc2c(cc1O)CN(CCCCNC(=O)c1ccc(C#N)cc1)CC2 [compound 1]
D3R [2]
  selectivity for D3R over σ2R: good selectivity

## O=C(NCc1ccccc1CN1CCc2cc(O)c(O)cc2C1)c1cccc(Br)c1 [6a]
D3R [1]
  D3R selectivity versus D1R, D2R and D4R: < 50 fold

## COc1cc2c(cc1OC)CN(Cc1ccccc1CNC(=O)c1ccc(C#N)cc1)CC2 [5t]
D3R [1]
  D3R selectivities versus the other dopamine receptors tested: 15- to 420 fold

## COc1cc2c(cc1O)CN(Cc1ccccc1CNC(=O)c1cccc(C#N)c1)CC2 [5i]
D3R [1]; ratio of Ki values
  D3R selectivity versus D4R: > 100 fold
